Measurements as given in US20250375465A1, “METHODS FOR AFFECTING TISSUE-RESIDENT T CELLS” (THE TRUSTEES OF THE UNIVERSITY OF PENNSYLVANIA, priority 2024, published 2025).
Entries after “also recorded” stand apart in the source; their conditions may differ.

Columns and labels:
primary human T cells = assay: Kill curve in primary human (circulating) T cells, celltiter glow viability assay (FIG. 6C); type: cell-based; conditions: for apoptosis / killing of primary human T cells: FIG. 6C, 3 days incubation
Procedure: (Data extracted from J Clin Invest. 2022; 132 (16): e153514). FIG. 6C: in contrast to the AML cells, circulating T cells required about 100-fold higher dose of the GSPT-1 degrader to be depleted. The GSPT-1 degrader used in FIG. 6C is C90009, the same drug as in FIGS. 6A-6B. Blue curve: kill curve with MRT-2359. Primary human T cells were incubated with indicated doses for 3 days followed by viability quantification using a standard celltiter glow assay. Survival was quantified relative to T cells from the same donor treated with DMSO.

GSPT1 = target: T1, GSPT1 (Homo sapiens, UniProt P15170+Q96SW2); assay: Western blot of GSPT1 protein in primary human T cells after degrader treatment (FIGS. 13A-13B); type: cell-based; conditions: primary human peripheral blood T cells, 24 hours in vitro, compared to DMSO control
T1 construct: GSPT1 protein in primary human T cells isolated from peripheral blood; endogenous in cells; host or cells: primary human T cells from peripheral blood of normal donors
Procedure: FIGS. 13A-13B illustrate degradation of GSPT1 in primary human T cells using CC-90009 and MRT-2359. FIG. 13A is a Western blot analysis of GSPT1 protein in primary human T cells isolated from peripheral blood. T cells were treated with indicated concentrations of GSPT1 degrader for 24 hours in vitro. GSPT1 protein was detected with a monoclonal anti-GSPT1 antibody. FIG. 13B is a graph quantifying GSPT1 protein remaining after degrader treatment as shown in FIG. 13A compared to a DMSO negative control.
(§1) Given that GSPT1-degrading small-molecules are already advancing through early-phase trials for cancer, it was tested whether targeting GSPT1 could selectively affect TRM in vitro. TRM were isolated from healthy human skin (n=6) and their sensitivity was to the GSPT1-degrading drug CC-90009 with that of human blood T cells. […] In a similar study, another small molecule GSPT1 degrader, MRT-2359, was used to treat peripheral blood T cells from normal human donors for 24 hours in vitro at various concentrations.

[1] = tested on: TRM isolated from healthy human skin; assay: Viability of skin TRM versus blood T cells after GSPT1 degrader treatment (FIG. 10D); type: cell-based; conditions: 72 hours of treatment, n=6
Procedure: as §1

[2] = tested on: acute myeloid leukemia (AML) cells; conditions: FIG. 6A; data extracted from J Clin Invest. 2022; 132 (16): e153514; cited from earlier work
primary leukemia cells = conditions: FIG. 6B; data extracted from J Clin Invest. 2022; 132 (16): e153514; cited from earlier work

T1 sequence (P15170 whole entry): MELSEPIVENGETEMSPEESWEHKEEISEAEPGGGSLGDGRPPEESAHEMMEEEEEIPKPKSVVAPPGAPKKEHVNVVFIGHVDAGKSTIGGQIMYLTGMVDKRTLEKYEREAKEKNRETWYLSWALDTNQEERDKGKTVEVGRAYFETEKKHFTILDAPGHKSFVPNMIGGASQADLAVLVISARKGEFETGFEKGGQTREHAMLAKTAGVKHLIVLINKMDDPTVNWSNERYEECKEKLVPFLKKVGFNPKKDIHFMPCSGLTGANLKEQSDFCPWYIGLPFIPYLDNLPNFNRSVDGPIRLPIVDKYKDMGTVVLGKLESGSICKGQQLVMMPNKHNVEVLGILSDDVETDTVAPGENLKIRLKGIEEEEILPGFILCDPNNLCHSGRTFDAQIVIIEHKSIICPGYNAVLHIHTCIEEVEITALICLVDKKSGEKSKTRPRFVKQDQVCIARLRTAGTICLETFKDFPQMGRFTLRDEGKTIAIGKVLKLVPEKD
T1 sequence (Q96SW2 whole entry): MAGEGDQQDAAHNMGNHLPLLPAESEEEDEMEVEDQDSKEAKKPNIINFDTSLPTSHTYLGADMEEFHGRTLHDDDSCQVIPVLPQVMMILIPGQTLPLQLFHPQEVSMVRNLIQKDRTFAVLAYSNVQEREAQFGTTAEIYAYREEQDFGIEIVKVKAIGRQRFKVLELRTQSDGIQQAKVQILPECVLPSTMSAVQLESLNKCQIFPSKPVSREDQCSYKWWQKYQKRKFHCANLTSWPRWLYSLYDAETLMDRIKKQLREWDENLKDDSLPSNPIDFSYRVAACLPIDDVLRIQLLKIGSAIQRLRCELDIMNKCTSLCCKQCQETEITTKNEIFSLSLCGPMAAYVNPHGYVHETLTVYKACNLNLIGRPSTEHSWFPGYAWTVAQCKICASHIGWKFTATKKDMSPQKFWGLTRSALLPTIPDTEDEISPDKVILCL
T1 sequence (Q16531 whole entry partner): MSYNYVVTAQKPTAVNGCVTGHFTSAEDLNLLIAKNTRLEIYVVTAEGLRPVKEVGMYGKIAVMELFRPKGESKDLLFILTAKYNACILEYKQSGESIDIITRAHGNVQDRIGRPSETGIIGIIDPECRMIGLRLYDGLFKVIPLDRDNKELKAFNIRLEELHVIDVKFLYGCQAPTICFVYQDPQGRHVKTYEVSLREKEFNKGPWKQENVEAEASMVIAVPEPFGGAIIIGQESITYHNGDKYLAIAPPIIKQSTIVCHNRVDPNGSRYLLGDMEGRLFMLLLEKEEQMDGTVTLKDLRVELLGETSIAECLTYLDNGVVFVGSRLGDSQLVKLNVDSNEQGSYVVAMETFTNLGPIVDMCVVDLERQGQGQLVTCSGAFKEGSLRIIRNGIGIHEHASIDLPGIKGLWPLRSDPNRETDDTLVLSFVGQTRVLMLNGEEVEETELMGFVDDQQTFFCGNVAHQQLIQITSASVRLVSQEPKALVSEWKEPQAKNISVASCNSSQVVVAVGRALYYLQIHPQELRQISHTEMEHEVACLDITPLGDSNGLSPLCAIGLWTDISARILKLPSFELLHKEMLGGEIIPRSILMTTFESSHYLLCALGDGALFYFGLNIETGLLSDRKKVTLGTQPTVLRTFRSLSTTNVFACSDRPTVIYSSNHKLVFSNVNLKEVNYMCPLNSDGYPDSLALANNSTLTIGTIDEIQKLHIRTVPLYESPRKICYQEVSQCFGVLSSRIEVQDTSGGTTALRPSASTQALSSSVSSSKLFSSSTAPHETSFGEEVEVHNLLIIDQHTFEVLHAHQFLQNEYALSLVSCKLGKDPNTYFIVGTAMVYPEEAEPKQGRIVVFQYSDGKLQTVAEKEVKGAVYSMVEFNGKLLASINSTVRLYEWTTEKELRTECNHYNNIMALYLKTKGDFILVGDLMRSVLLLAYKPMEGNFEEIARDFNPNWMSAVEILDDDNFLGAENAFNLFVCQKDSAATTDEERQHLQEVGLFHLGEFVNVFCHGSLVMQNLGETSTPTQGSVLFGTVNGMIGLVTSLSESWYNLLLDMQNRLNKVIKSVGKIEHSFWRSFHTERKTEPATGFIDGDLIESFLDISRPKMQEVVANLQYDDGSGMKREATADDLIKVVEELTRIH

SMILES | apoptosis / killing of primary human T cells (primary human T cells) | GSPT1 protein remaining after degrader treatment (GSPT1) | dosage required for same level of apoptosis in primary (circulating) T cells versus cells of FIGS. 6A-6B (primary human T cells; FIG. 6C versus FIGS. 6A-6B) | dose required to deplete circulating T cells relative to AML cells (primary human T cells; primary human T cells incubated 3 days, survival relative to DMSO, compared with FIGS. 6A-6B) | viability of skin TRM compared with circulating T cells [1] | depletion / apoptosis of AML cells [2] | depletion / apoptosis of primary leukemia cells (primary leukemia cells)
O=C1CCC(N2Cc3ccc(COC(=O)Nc4cc(OC(F)(F)F)ccc4F)cc3C2=O)C(=O)N1 (stereo not drawn) [MRT-2359] | does apoptosis | significant dose-dependent loss of GSPT1 protein; also recorded: dose-dependent downregulation of GSPT1 protein | – | – | – | – | –
O=C1CCC(N2Cc3cc(CNC(=O)C(F)(F)c4ccc(Cl)cc4)ccc3C2=O)C(=O)N1 (stereo not drawn) [CC-90009] | does apoptosis | significant dose-dependent loss of GSPT1 protein; also recorded: dose-dependent downregulation of GSPT1 protein | dramatically increased | about 100 fold | reduced viability | dose-dependent apoptosis; also recorded: dose-dependent depletion | dose-dependent apoptosis; also recorded: dose-dependent depletion
